Key:
[1] = test system: Primary human subcutaneous adipocytes; test: Glucose uptake in human subcutaneous adipocytes, insulin resistant model; format: cell-based
Procedure: As described above, primary human subcutaneous adipocytes were differentiated for two weeks prior to treatment. To induce an insulin resistant state, cells were treated in serum free Dulbecco's Modified Eagle Medium (high glucose) and […] for 24 hours. Cells were simultaneously treated with compounds diluted in DMSO for 24 hours. As described above, after 24 hours, media was exchanged for assay buffer and the compounds were added again but in the presence of approximately 1 nM insulin. Cells were washed and lysed after 2 hours and glucose uptake was measured. […] Statistical changes in glucose uptake were determined by way ANOVA and compared to DMSO.

Caco-2 colonocytes = test: Human Caco-2 barrier integrity assay (TEER); format: cell-based; settings: 48 hours
Procedure: Caco-2 colonocytes were maintained at 37° C. and 5% CO2 in Dulbecco's Modified Eagle Medium (DMEM) and supplemented with 10% FBS, 1% NEAA, 1% penicillin-streptomycin. At 70-80% confluency, cells were trypsinized and seeded in 0.4 cm^2 transwell collagen I coated membranes with supplemented DMEM in both apical and basolateral compartments. Cells were seeded at a density of 200,000 cells per well and maintained for 10 days to form a polarized barrier with a TransEpithelial Electrial Resistance (TEER) reading above 1000Ω. On the first day of the assay, initial TEER readings were taken and cytokines were added to the basolateral media (50 ng/mL TNFα, 25 ng/mL IFNγ and 10 ng/mL IL-1β) to reduce barrier integrity while compounds diluted in (dimethylsulfoxide) DMSO were added to the apical media in triplicate. After 48 hours, TEER readings were taken again and viability was measured by CellTiter 96® AQueous One Solution Cell Proliferation Assay (Promega). The percent change in TEER over the 48 hours was determined and normalized to the 0.1% DMSO control (Table 6).

[2] = test system: Primary human subcutaneous adipocytes; test: Glucose uptake in human subcutaneous adipocytes, insulin sensitive model; format: cell-based
Procedure: Primary human subcutaneous adipocytes (Zen Bio, Research Triangle Park, N.C.) were differentiated for two weeks prior to treatment. Cells were treated with indicated compounds diluted in (dimethyl-sulfoxide) DMSO in serum free medium for 24 hours in triplicate. After 24 hours, media was exchanged for assay buffer and the compounds were added again but in the presence of approximately 1 nM insulin. Glucose uptake was initiated with the addition of a cocktail containing 2-deoxyglucose and ^3H-2-deoxyglucose and allowed to incubate for 2 hours. Cells were washed, lysed and glucose uptake was measured as counts per well. As an assay control, 100 nM of insulin was used during the 2 hours of glucose uptake. […] Statistical changes in glucose uptake were determined by way ANOVA and compared to DMSO.

[3] = test system: Human Peripheral Blood Monocytes (PBMCs); test: Cytokine release from human PBMCs; format: cell-based; settings: 100 μM, LPS, 24 hours
Procedure: Human donor blood (8 mL) was collected in sodium citrate CPT tubes and centrifuged at 1,600×g for 20 minutes at room temperature. […] PBMCs samples were centrifuged at 400×g for 10 minutes at 10° C. […] PBMCs were filtered through a 70 micron mesh to remove any cellular debris. […] PBMCs in a 96-well plate were rested for 30 minutes in a 37° C., 5% CO2 incubator, then subsequently treated with 10 μl of indicated compound. After 2 hours 10 μL of LPS (O111:B4) 1 mg/mL was added to test wells. After 24 hours of incubation at 37° C., 5% CO2, 100 μL of cell supernatant was collected and transferred to a 96-well plate (non-tissue treated, flat bottom). The plate was centrifuged at 350×g for 5 minutes at room temperature, and then the clear supernatant transferred to a new 96-well plate (non-tissue treated, flat bottom). The remaining cells were tested for viability using CellTiter-Glo® Luminescent Cell Viability Assay (Promega). The supernatant was analyzed for TNFα, IL-6 and IL-1β (kit LXSAHM-03; R&D Systems), using Luminex Immunoassay Technology (MAGPIX System). Cytokine levels of LPS treated DMSO control samples were set to 100%, and compound treated samples were expressed relative to this (Table 13).

naïve CD4+ T cells = test: Human regulatory T cell differentiation assay; format: cell-based; settings: 6 days
Procedure: Peripheral blood mononuclear cells (PBMCs) from whole blood donated by health volunteers were separated by Ficoll-Paque gradient centrifugation and naïve CD4^+ T cells were subsequently isolated using magnet beads (EasySep™ Human Naïve CD4^+ T Cell Isolation Kit, Cambridge, Mass.). For regulatory T cell (Treg) differentiation assay, naïve CD4^+ T cells were cultured (1-10×10^4 cells) in CTS OpTmizer medium for 6 days and stimulated with 5 ng/ml TGF-β, 100 U/ml IL-2, and ImmunoCult™ Human […] T Cell Activator; Stemcell #10990) with/without our Compounds. Cell viability was determined using a viability dye (eBioscience Fixable Viability Dye eFluor 780: ThermoFisher 65-0865-14) at 1:500 dilution. The cells were gated for Treg, defined as Live, CD11c^−, CD14^−, CD19^−, CD8^−, CD4^+, CD3^+, CD25^+, FOXP3^+. Percent (%) Tregs were calculated as percentage of CD4^+, CD25^+, FOXP3^+ cells over total CD4^+ T cells. Statistical analysis was performed with GraphPad Prism Software Using One-Way ANOVA.

Mouse myocyte = Mouse myocyte lipolysis assay; format: cell-based; settings: Mus musculus, read-out: Free glycerol % DMSO
Procedure: Cells were obtained from ATCC and cultured in Dulbecco's Modified Eagle's medium (DMEM) containing 20% fetal bovine serum and 1% penicillin/streptomycin at 37° C. in an incubator with 5% CO2. Once the cells became confluent, they were seeded into a tissue culture treated 96 well plate. The next day, the medium containing DMEM with 2% equine serum was used to start differentiation. Once cells were fully differentiated, they were treated with indicated compounds.

Male DIO mice = test: In vivo evaluation for glucose disposal and lipidemia in DIO mice (Example 11); settings: 0.045% in HFD
Procedure: The DIO mice were prepared by feeding male C57BL/6 mice a high fat diet (HFD, Research Diets D12492) from 6-14 weeks of age. DIO mice were housed individually and maintained on the HFD through the duration of study. A twelve-hour light cycle was maintained with room temperature maintained at 22-25° C. All of the mice were acclimated to the facility for 5 days prior to starting the study.
Following 5 days of facility acclimation, DIO mice were randomized into 8 groups of 10 based on body weight and blood glucose for assignment to treatment, as shown in Table 9:
All treatments were administered admixed in HFD (Research Diets, New Brunswick N.J.) and were provided ad libitum for 30 days. Drinking water for group 7 was supplemented with 1, 3 Butanediol at 3% concentration.
Body weight was recorded at baseline and twice weekly thereafter. Feed and water intakes were recorded each Monday, Wednesday, and Friday.
Blood samples (<3 μL) were obtained one hour post dose by tail clip at baseline and weekly thereafter for measurement of fed blood glucose by StatStrip. Additional anti-coagulated blood samples (100 μl, EDTA di-potassium salt) were obtained by tail clip one hour post-dose at baseline, day 14 and day 30. Anti-coagulated samples were quick frozen and stored on dry ice.
Animals were subjected to a 16 hour fast for performance of an oral glucose tolerance test (OGTT) on day 28. Blood samples were obtained via tail clip just prior to (8 am) and 15, 30, 60, 90, and 120 minutes post-glucose load (2.0 g/kg, PO) for assay of whole blood glucose (StatStrip). Feed was returned following last sample.
Animals were terminated on day 30-31 using CO2 inhalation and induction of pneumothorax. Terminal blood samples were obtained by cardiac puncture. Whole blood was processed to serum and analyzed for serum cholesterol, triglycerides, high density lipoprotein (HDL), low density lipoprotein (LDL) and non-esterified fatty acids (NEFA) using AU480 clinical analyzer.
Organ weights (liver, spleen, subcutaneous fat, inguinal fat, abdominal fat, and epididymal fat) were recorded. Sections of each fat were frozen or fixed in 4% paraformaldehyde/PBS, pH 6.9; Fat samples were placed on dry ice. Fixed liver samples (4% paraformaldehyde) were sent to Premier Laboratories for H&E staining and scoring for steatosis, inflammation and fibrosis. Spleen samples were prepared in ice cold 5% bovine serum albumin (BSA) in PBS or 4% paraformaldehyde. Sections of brain, heart, lung, and small and large intestine were fixed in 10% formalin.
All data are represented as group mean±SEM. Data were analyzed using JMP (SAS software). All normalizations were calculated using terminal body weight.
Baseline differences among groups were identified using Tukey-Kramer Hsd<0.05. Treatment effects compared to control were determined using Oneway ANOVA (*, p<0.05) followed by Dunnett's test where appropriate.

Mouse 3T3-L1 cells = test: Mouse adipocyte lipolysis assay; format: cell-based; settings: Mus musculus, 3T3-L1; 100 μM, 24 hours; read-out: Lipolysis Free Fatty Acids % DMSO
Procedure: Once the cells became confluent, they were seeded into a tissue culture treated 96 well plate. […] After 14 days of differentiation, cells were treated with compounds of interest. After 24 hours post-treatment, the cell viability was assessed using CellTiter-Glo Luminescent Cell Viability Assay from Promega, and lipolysis was determined using Lipolysis Assay Kit from ZenBio.

With `CCCC(=O)O` [Butyrate, butyrate] the “Insulin Resistant % DMSO (glucose uptake)” value (“Insulin Resistant % DMSO” below) ([1]; 3 mM) was “+ (110%> ≤140%: +)”, the “% Change in TEER from DMSO” value (Caco-2 colonocytes; 1 mM + cytokines) was “− (≤125%: −)” and the “% Change in TEER from DMSO” value (Caco-2 colonocytes; 3 mM + cytokines) was “− (≤125%: −)”. For the same molecule, the “% Change in TEER from DMSO” value (Caco-2 colonocytes; 5 mM + cytokines) was “++ (150%≥ ≤200%: ++)”, the “Insulin Sensitive % DMSO (glucose uptake)” value (“Insulin Sensitive % DMSO” below) ([2]; 3 mM) was “− (<50%: −)” and the “IL6 % DMSO control” value [3] was “+ ((+) 50%≥ <90% DMSO)”. For the same molecule, the “ILβ % DMSO control” value [3] was “− ((−) ≥110% DMSO;)” and the “TNFα % of DMSO control” value [3] was “++ ((++) <50% DMSO)”.

In the case of `CCC(=O)O` [Propionate, propionate], the “Insulin Resistant % DMSO” value ([1]; 3 mM) is reported as “= (50%> ≤110%: =)”, the “% Change in TEER from DMSO” value (Caco-2 colonocytes; 1 mM + cytokines) is reported as “+ (125%> ≤150%: +)” and the “% Change in TEER from DMSO” value (Caco-2 colonocytes; 3 mM + cytokines) is reported as “++ (150%≥ ≤200%: ++)”. The “Insulin Sensitive % DMSO” value ([2]; 3 mM) was “= (50%> ≤110%: =)”, the “IL6 % DMSO control” value [3] was “+ ((+) 50%≥ <90% DMSO)” and the “ILβ % DMSO control” value [3] was “+ ((+) 50%≥ <90% DMSO)”. The “TNFα % of DMSO control” value [3] was “+ ((+) 50%≥ <90% DMSO)”.

With `CN(CCOc1ccc(CC2SC(=O)NC2=O)cc1)c1ccccn1` (centres unmarked) [Rosiglitazone, rosiglitazone, reference compound] the “Cell viability % DMSO” value (naïve CD4+ T cells; 10 uM) was “= (90%≥ ≤110%: =)”, the “Cell viability % DMSO” value (naïve CD4+ T cells; 100 uM) was “− (<90%: −)” and the activity at 10 µM (naïve CD4+ T cells; Homo sapiens, CD4+ T, 144 h, 10 uM, read-out: Treg induction % DMSO) was 90 to 110%. For the same molecule, the activity at 100 µM (naïve CD4+ T cells; Homo sapiens, CD4+ T, 144 h, 100 uM, read-out: Treg induction % DMSO) was 90 to 110%, the activity at 10 µM (Mouse myocyte; 10 μM) was 50 to 70% and the activity at 100 µM (Mouse myocyte; 100 μM) was 50 to 70%. The “Abdominal fat (% BW)” value (Male DIO mice) was “*1.6 ± 0.1 % BW”, the “Blood glucose (fed) change compared to baseline” value (Male DIO mice) was −22.8±3.7% and the “Epididymal fat (% BW)” value (Male DIO mice) was 4.1 ± 0.2 % BW. For the same molecule, the “Inguinal fat (% BW)” value (Male DIO mice) was 0.78 ± 0.05 % BW, the “Subcutaneous fat (% BW)” value (Male DIO mice) was “*7.6 ± 0.5 % BW” and the “Fasting blood glucose levels (time 0 from OGTT)” value (Male DIO mice; 28 days, 16 hour fast) was 91.3 ± 2.5 mg/dL. The “change in body weight from baseline” value (Male DIO mice; 30 days) was 22.8±1.9%, the Cholesterol (Male DIO mice; terminal (fed) serum) was “*121.5 ± 7.3 mg/dL” and the HDL (Male DIO mice; terminal (fed) serum) was “*60.5 ± 3.0 mg/dL”. For the same molecule, the LDL (Male DIO mice; terminal (fed) serum) was 8.0 ± 0.5 mg/dL, the NEFA (Male DIO mice; terminal (fed) serum) was “*0.71 ± 0.04 mEq/L” and the Triglycerides (Male DIO mice; terminal (fed) serum) was 91.3 ± 4.8 mg/dL. The activity at 100 µM (Mouse 3T3-L1 cells) was ≤ 50%.

In the case of `O=C[C@@H](O)[C@H](O)[C@H](O)CO` [arabinose], the “Insulin Resistant % DMSO” value ([1]; 0.5 mM) is reported as “= (50%> ≤110%: =)”, the “Insulin Resistant % DMSO” value ([1]; 1 mM) is reported as “= (50%> ≤110%: =)” and the “Insulin Sensitive % DMSO” value ([2]; 0.5 mM) is reported as “= (50%> ≤110%: =)”. For the same molecule, the “Insulin Sensitive % DMSO” value ([2]; 1 mM) was “++ (140%≥ ≤200%: ++)”, the “IL6 % DMSO control” value [3] was “+ ((+) 50%≥ <90% DMSO)” and the “ILβ % DMSO control” value [3] was “= ((=) 90%≥ <110% DMSO)”. The “TNFα % of DMSO control” value [3] was “+ ((+) 50%≥ <90% DMSO)”.

From US10953027B2, “Active agents and methods of their use for the treatment of metabolic disorders and nonalcoholic fatty liver disease” (Flagship Pioneering Innovations V, Inc., priority 2018, dated 2021)
